The target in this assay is T1, DCLK1 (Doublecortin-like kinase 1) (Homo sapiens, UniProt O15075).
T1 construct: kinase domain (KD)
T1 sequence (O15075 390-647 limits assumed): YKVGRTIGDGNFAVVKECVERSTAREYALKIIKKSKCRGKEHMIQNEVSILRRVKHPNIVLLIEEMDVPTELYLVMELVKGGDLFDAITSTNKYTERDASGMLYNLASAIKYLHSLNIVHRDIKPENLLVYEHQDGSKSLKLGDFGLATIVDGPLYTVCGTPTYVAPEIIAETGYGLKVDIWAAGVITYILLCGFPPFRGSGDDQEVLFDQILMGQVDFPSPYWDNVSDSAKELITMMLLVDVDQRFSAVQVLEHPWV
The assay is described as follows: SPR (Biacore X-100, kinase domain immobilized on CM5 chip). It counts as binding. A general note: Surface plasmon resonance follows binding to a sensor surface in real time, without labels.

The structures appear in SMILES notation.

What is called Kd is the free concentration of one partner at which half of the binding sites on the other are occupied at equilibrium, for simple one-to-one binding. The low end stands for higher affinity, the high end for lower affinity.

For the molecule `CCN1CCN(Cc2ccc(Nc3ncc(F)c(-c4cc(F)c5nc(C)n(C(C)C)c5c4)n3)nc2)CC1` [6ZV, Abemaciclib], binding was put at a Kd of 1920 nM.

Values taken from publication PMC10531055, “Molecular Mechanism of Mutational Disruption of DCLK1 Autoinhibition Provides a Rationale for Inhibitor Screening” (International Journal of Molecular Sciences, 2023).
